Experimental data from publication PMC10132538, “Regulation of the two-pore domain potassium channel, THIK-1 and THIK-2, by G protein coupled receptors” (PLOS ONE, 2023).

What was measured:
[1] = target: T1, THIK-1 channel (Mus musculus, UniProt Q8R1P5); assay: Effect of DAG analogue on THIK-1 channel current (I10th/I0); type: cell-based; details: 50 sec after application
T1 construct: expressed in transfected cells; host or cells: HEK293T
T1 sequence (Q8R1P5 1-405): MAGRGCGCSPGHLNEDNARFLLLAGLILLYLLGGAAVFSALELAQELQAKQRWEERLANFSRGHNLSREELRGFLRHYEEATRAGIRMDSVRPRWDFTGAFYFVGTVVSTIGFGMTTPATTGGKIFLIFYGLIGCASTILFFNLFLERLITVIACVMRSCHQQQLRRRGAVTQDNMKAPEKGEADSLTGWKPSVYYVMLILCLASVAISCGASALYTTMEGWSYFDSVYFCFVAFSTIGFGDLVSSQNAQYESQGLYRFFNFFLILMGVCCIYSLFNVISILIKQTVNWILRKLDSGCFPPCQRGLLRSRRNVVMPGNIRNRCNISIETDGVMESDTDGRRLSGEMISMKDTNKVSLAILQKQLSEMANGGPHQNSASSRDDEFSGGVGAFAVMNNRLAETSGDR
Text: (§1) Pertussis toxin (PTX) was purchased from Wako (Osaka, Japan).
Fig 5 Effects of OAG on THIK-1 channel current. (A) Current and membrane potential relationships before and after application of OAG. Ramp pulses were applied ever 5 sec before and after application of OAG. The current and membrane potential relationships before (black) and 50 sec after application of the indicated concentration of OAG (red) are shown. (B) Effects of OAG on THIK-1 channel. Circles indicate the ratio of the current amplitudes after application of OAG or DMSO to the amplitudes before application of them (I10th/I0). Mean and S.D. are shown as bars (n = 8–12). n.s.: p> 0.05.

[2] = target: T2, ΔN-THIK-2 channel (Mus musculus, UniProt F6UVE5); assay: Effect of DAG analogue on ΔN-THIK-2 channel current (I10th/I0) in CHO-K1 cells; type: cell-based; details: 10 and 30 μM
T2 construct: expressed in transfected cells; host or cells: CHO-K1
T2 sequence (F6UVE5 with tags, fused parts or gaps): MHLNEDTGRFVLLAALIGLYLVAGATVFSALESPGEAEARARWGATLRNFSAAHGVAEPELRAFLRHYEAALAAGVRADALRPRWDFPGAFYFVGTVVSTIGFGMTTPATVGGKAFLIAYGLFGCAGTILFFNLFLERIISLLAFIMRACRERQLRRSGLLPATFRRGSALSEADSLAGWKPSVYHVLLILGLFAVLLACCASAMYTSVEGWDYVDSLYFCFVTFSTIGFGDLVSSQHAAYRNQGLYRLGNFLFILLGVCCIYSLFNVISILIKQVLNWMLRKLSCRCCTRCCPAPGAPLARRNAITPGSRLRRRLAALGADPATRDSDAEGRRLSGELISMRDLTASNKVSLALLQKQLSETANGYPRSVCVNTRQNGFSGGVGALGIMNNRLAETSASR
Text: as §1
Fig 7 Effect of C-Ala mutation or OAG on ΔN-THIK-2 channel. (A) Current-voltage relationships before and after stimulation of mGlu2. […]. (B) Effects of the mGlu2 activation on the ΔN-THIK-2 and C-Ala mutants. […]. Mean and S.D. are shown as bars (n = 11–12). (C) Current-voltage relationships before and after application of OAG. The current-voltage relationships before and 50 sec after application of OAG are shown (black and red lines, respectively). The tested concentration of OAG was 10 μM (left) and 30 μM (right). (D) Effects of OAG on the ΔN-THIK-2 channel. The ratio (I10th/I0) are not different between OAG applied group (filled circles) and vehicle applied group (open circles). Mean and S.D. are shown as bars (n = 7–11). **: 0.001<p≤ 0.01, n.s.: p> 0.05.

[3] = target: T3, mGlu2 (Rattus norvegicus, UniProt P31421); assay: mGlu2-induced increase of THIK-1 channel current, whole cell patch clamp in HEK293T cells; type: cell-based; details: concentration response of THIK-1 current increase
T3 construct: expressed in transfected cells; host or cells: HEK293T
Text: (§2) Coding region of mGu2 (M1-P840) was amplified by conventional PCR with designed primers and the resulting product was subcloned into pEYFP-N1 vector at the BglII and EcoRI sites. The cDNAs for mouse THIK-2 channel and dimeric THIK channels were subcloned into pcDNA3.1(-) vector. To increase the surface membrane expression of the THIK-2 channel, 29 residues (Ser2-Ser30) were removed (ΔN-THIK-2). […] Ci-VSP-IRES-GFP vector was kindly gifted by Dr. Y. Okamura (Osaka University, Osaka, Japan). HEK293T cells or CHO-K1 cells were seeded on glasses and transfected with the plasmid DNAs for THIK channels, receptors and a transfection marker of yellow fluorescent protein (YFP). Electrophysiological experiments were performed 24–72 h after the transfection. […] Pertussis toxin (PTX) was purchased from Wako (Osaka, Japan). […] All reagents were dissolved at high concentration and stored at -20 °C as the stock solutions. The stock reagent solution was diluted at concentrations for the electrophysiological experiments. […]
(§3) The amplitude of the THIK-1 channel current at 0 mV was measured from every trace induced by the ramp pulse protocol to minimize the fraction of non-selective cationic leak current. […] The effects of GPCRs on the THIK-1 channel were evaluated as the ratio of the current amplitude after the agonist application to I0 (Iagonist/I0). […]

[4] = test system: endogenously expressed channels in HEK293T cells; assay: Effect of receptor stimulation on the endogenous current in HEK293T cells without THIK-1; type: cell-based
Text: The amplitude of the current increase at the 15th trace (ΔI15th) after the application of GABA or oxo-M were normalized to that at the 5th traces (ΔI5th) with or without additional activation of A2aR (ΔI15th/ΔI5th).
The current density at 0 mV (I0) in HEK293T cell transfected with indicated receptors and the effects of the receptor stimulation are shown as Mean and S.D.

[5] = target: T4, GABABR (Homo sapiens, UniProt Q9UBS5); assay: GABABR-induced increase of THIK-1 channel current, whole cell patch clamp in HEK293T cells; type: cell-based; details: PTX 300 ng/mL, more than 16 h
T4 construct: expressed in transfected cells; host or cells: HEK293T
Text: as §2, §3

[6] = test system: THIK-1 channel; assay: Basal current (I0) density of THIK-1 channel at 0 mV in HEK293T cells; type: cell-based; details: 0 mV, before agonist
Text: (§4) Coding region of mGu2 (M1-P840) was amplified by conventional PCR with designed primers and the resulting product was subcloned into pEYFP-N1 vector at the BglII and EcoRI sites. The cDNAs for mouse THIK-2 channel and dimeric THIK channels were subcloned into pcDNA3.1(-) vector. To increase the surface membrane expression of the THIK-2 channel, 29 residues (Ser2-Ser30) were removed (ΔN-THIK-2). […] Ci-VSP-IRES-GFP vector was kindly gifted by Dr. Y. Okamura (Osaka University, Osaka, Japan). HEK293T cells or CHO-K1 cells were seeded on glasses and transfected with the plasmid DNAs for THIK channels, receptors and a transfection marker of yellow fluorescent protein (YFP). Electrophysiological experiments were performed 24–72 h after the transfection. […] Pertussis toxin (PTX) was purchased from Wako (Osaka, Japan). […] All reagents were dissolved at high concentration and stored at -20 °C as the stock solutions. The stock reagent solution was diluted at concentrations for the electrophysiological experiments. PTX was solved in the culture medium (final concentration, 300 ng/mL) and cells were incubated in it for more than 16 h. U73122 or U73343 (final concentration, 2 μM each) was dissolved in Hanks’ Balanced Salt Solution (HBSS, Invitrogen, Carlsbad, CA, USA) supplemented with 1 mM Ca^2+ and 0.3 mM Mg^2+. Cells were incubated in HBSS with U73122 or U73343 for 10 min at room temperature before the whole cell current recording.
Composition of bath solution was (in mM) 140 NaCl, 4 KCl, 1 CaCl2, 0.3 MgCl2, 10 HEPES (pH 7.4 adjusted with NaOH). The pipette solution for whole cell patch clamp experiments contained (mM) 130 KCl, 5 Na2-ATP, 3 EGTA, 0.1 CaCl2, 10 HEPES, 4 MgCl2, (pH 7.3 adjusted with KOH). GTP (0.3 mM) was supplemented in the pipette solution. Once the whole cell configuration was established, the cell was held at -80mV and ramp pulses (-120mV to +40mV for 0.4 sec) were applied every 5 sec. Various concentrations of the agonists were applied using a fast perfusion system (VC77SP, Warner Instruments, Hamden, CT, USA). The PKC inhibitor chelerythrine was included in the pipette solution.
The amplitude of the THIK-1 channel current at 0 mV was measured from every trace induced by the ramp pulse protocol to minimize the fraction of non-selective cationic leak current. The current amplitude before the agonist application was set as the basal current amplitude (I0). The effects of GPCRs on the THIK-1 channel were evaluated as the ratio of the current amplitude after the agonist application to I0 (Iagonist/I0). The EC50 values were estimated by fitting the concentration response curve to a Hill equation (Origin2016; OriginLab, Northampton, MA, USA). […] The effects of A2aR on the Gi/o-R-induced current increase of the THIK-1 channel was estimated as follows. […] All data are shown as means and S.D. The statistical significance between two or more than two groups was estimated by unpaired Student’s t-test or by a one-way analysis of variance (ANOVA) followed by Tukey’s test, respectively. […] Values of p≤ 0.05 were considered as statistically significant (***:p≤0.001, **:0.001<p≤0.01, *:0.01<p≤0.05, n.s.:p>0.05).

[7] = target: T5, mGlu2-YFP / ΔN-THIK-2 channel (Rattus norvegicus, UniProt P31421); assay: mGlu2-YFP-induced increase of ΔN-THIK-2 channel current in CHO-K1 cells; type: cell-based, mouse; details: PTX treated cells, glutamate 200 μM
T5 construct: Coding region of mGu2 (M1-P840) was amplified by conventional PCR; expressed in transfected cells; host or cells: CHO-K1
Text: as §4, with “Cells were incubated in HBSS with U73122 or U73343 for 10 min at room temperature before the whole cell current recording.” left out

T4 sequence (Q9UBS5 15-961 limits assumed): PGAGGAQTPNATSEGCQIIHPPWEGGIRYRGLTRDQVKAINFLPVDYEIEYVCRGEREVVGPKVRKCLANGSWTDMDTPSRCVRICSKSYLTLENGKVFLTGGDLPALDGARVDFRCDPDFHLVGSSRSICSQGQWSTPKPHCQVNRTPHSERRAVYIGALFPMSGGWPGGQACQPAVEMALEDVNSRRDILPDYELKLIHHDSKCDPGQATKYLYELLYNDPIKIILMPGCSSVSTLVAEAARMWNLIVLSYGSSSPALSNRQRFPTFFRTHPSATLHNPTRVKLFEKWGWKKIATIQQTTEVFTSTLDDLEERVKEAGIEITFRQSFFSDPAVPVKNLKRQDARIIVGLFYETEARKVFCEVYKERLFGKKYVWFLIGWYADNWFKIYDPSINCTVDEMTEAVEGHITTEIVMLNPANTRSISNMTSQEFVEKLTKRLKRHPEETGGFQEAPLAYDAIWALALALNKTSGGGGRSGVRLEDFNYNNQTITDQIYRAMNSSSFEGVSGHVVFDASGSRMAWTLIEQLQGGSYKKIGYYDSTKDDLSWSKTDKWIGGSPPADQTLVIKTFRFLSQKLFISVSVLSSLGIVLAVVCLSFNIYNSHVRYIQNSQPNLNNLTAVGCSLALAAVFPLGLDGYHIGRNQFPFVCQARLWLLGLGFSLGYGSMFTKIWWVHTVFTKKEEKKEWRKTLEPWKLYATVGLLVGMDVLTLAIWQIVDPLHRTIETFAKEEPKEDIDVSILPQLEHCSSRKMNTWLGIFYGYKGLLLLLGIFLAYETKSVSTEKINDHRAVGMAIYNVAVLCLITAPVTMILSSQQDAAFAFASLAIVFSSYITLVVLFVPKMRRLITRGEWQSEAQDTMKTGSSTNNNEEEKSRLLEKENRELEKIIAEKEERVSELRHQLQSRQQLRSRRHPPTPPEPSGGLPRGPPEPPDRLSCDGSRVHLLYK
T4 sequence (O75899 42-941 partner): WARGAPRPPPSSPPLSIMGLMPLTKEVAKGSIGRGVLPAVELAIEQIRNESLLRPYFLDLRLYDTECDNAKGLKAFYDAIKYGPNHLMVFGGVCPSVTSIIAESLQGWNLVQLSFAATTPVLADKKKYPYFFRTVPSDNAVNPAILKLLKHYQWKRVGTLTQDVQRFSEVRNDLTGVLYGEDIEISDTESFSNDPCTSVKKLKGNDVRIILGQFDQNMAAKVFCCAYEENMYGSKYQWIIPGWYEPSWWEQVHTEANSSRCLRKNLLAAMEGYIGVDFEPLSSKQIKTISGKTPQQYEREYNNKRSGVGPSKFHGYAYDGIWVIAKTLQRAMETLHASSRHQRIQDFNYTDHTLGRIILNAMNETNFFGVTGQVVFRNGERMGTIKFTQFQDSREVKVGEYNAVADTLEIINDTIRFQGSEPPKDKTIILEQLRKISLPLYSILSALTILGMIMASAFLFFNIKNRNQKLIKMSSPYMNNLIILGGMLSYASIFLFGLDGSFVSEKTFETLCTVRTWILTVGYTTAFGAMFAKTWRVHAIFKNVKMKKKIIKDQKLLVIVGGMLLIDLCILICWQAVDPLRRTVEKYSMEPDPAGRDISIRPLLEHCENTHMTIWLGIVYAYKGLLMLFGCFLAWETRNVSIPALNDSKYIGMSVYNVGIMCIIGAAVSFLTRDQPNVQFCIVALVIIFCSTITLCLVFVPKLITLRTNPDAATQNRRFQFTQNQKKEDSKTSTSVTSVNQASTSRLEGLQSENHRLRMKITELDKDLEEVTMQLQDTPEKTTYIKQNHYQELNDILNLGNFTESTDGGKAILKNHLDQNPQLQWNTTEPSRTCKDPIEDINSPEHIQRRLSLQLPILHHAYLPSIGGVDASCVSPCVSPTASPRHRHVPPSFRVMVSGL
T5 sequence (P31421 19-840, stated change not applied): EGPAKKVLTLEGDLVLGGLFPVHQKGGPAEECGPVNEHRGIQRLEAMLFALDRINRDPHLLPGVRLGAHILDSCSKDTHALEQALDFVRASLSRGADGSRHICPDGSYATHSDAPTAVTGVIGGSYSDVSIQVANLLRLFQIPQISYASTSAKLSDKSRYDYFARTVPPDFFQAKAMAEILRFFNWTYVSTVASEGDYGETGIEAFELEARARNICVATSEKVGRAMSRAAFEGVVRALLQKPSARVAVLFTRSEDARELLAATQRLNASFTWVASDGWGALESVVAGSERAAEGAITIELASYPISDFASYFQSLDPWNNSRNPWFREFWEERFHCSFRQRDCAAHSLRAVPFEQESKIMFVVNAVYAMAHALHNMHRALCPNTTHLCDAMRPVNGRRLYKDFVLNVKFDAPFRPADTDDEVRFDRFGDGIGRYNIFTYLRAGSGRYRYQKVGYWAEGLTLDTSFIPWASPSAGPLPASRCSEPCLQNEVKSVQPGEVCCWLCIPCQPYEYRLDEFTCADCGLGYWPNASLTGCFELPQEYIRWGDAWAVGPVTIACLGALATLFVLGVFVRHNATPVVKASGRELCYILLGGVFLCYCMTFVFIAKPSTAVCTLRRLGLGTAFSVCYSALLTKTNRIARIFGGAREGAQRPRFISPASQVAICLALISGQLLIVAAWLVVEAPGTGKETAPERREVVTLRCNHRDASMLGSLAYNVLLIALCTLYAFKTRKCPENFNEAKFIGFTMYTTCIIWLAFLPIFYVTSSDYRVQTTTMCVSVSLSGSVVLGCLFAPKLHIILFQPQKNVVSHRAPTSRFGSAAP
T3 sequence (P31421 19-872): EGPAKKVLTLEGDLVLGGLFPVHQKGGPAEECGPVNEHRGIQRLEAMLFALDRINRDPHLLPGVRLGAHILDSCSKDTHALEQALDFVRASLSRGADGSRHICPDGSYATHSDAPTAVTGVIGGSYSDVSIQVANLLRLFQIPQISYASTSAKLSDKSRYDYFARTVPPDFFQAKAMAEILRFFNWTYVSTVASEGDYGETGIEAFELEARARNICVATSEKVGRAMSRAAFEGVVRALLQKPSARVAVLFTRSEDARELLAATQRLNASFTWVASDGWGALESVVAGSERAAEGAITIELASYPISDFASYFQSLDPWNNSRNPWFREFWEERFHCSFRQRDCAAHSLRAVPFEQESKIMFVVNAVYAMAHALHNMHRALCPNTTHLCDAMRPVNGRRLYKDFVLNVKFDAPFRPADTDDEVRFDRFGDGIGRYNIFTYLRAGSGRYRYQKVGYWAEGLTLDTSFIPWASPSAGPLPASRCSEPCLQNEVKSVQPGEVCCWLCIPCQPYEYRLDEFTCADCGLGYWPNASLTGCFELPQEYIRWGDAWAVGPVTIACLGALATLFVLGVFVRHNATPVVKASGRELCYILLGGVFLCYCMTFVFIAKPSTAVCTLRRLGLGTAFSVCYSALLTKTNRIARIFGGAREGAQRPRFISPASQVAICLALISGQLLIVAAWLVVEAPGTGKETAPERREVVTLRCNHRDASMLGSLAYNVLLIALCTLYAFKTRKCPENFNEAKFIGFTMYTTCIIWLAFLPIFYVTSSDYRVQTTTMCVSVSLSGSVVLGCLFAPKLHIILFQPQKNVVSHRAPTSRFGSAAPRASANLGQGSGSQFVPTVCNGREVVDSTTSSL

In the case of CCCCCCCC/C=C\CCCCCCCC(=O)OC[C@H](CO)OC(C)=O [OAG, 1-oleoyle-2-acetyl-sn-glycerol], the “increase in the amplitude of the THIK-1 channel current (I10th/I0) versus vehicle (DMSO)” value [1] was “not significantly different” and the “current amplitude of ΔN-THIK-2 channel” value [2] was “did not increase the current amplitude”.
For N[C@@H](CCC(=O)O)C(=O)O [glutamate, L-glutamate], the “n; Hill coefficient” value [3] was 1.19 ± 0.65, the “Effect of agonist (Iagonist/I0)” value ([4]; HEK293T transfected with mGlu1, no THIK-1) was 0.98 ± 0.17 and the “Effect of agonist (Iagonist/I0)” value ([4]; HEK293T transfected with mGlu2, no THIK-1) was 0.92 ± 0.06.
Pertussis toxin [PTX] was tested, and the “effect of GABA on the THIK-1 channel after inhibitor treatment” value [5] was “not observed”, the “Basal current (I0) density of THIK-1 channel” value (“Basal current (I0) density” for short) ([6]; THIK-1 + GABABR, + PTX (300 ng/mL)) was 170.6 ± 58.2 (7)^n.s. pA/pF and the “Basal current (I0) density” value ([6]; THIK-1 + M2R, + PTX (300 ng/mL)) was 168.6 ± 141.2 (6)^n.s pA/pF. For the same compound, the “Basal current (I0) density” value ([6]; THIK-1 + mGlu2, + PTX (300 ng/mL)) was 281.87 ± 148.3 (5)^n.s. pA/pF and the “effect of mGlu2-YFP on ΔN-THIK-2 channel after inhibitor treatment” value [7] was “inhibited”.
